Measurements published in the supplement of paper PMC10307832.

Assays:
Assay in all cases: relative viability (nuclei count vs DMSO), 5 days (fraction); higher = more cells survive
Bicalutamide + Olaparib = compound: CC(O)(CS(=O)(=O)c1ccc(F)cc1)C(=O)Nc1ccc(C#N)c(C(F)(F)F)c1 [Bicalutamide] + O=C(c1cc(Cc2n[nH]c(=O)c3ccccc23)ccc1F)N1CCN(C(=O)C2CC2)CC1 [Olaparib] (partner 8 µM)
In short: (§1)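 Five library-drug doses in √10 steps were combined with a fixed anchor-drug dose, or a single drug was given alone, by pin tool to lung cancer cell lines in 1536-well plates the day after seeding. Nuclei were stained and counted after 5 days. Relative viability is the nuclei count in treated wells over that in vehicle wells, taken as the median of duplicate plates.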

[1] = compound: C(C(=O)C(=O)O)Br [Bromopyruvate] + CC(=O)Nc1cccc(-n2c(=O)n(C3CC3)c(=O)c3c(Nc4ccc(I)cc4F)n(C)c(=O)c(C)c32)c1 [Trametinib] (partner 0.02 µM)
In short: as §1

[2] = compound: C(C(=O)C(=O)O)Br [Bromopyruvate] + CCNC(=O)c1noc(-c2cc(C(C)C)c(O)cc2O)c1-c1ccc(CN2CCOCC2)cc1 [Luminespib] (partner 0.01 µM)
In short: as §1

[3] = compound: CC(O)(CS(=O)(=O)c1ccc(F)cc1)C(=O)Nc1ccc(C#N)c(C(F)(F)F)c1 [Bicalutamide] + CS(=O)(=O)N1CCN(Cc2cc3nc(-c4cccc5[nH]ncc45)nc(N4CCOCC4)c3s2)CC1 [Pictilisib] (partner 1 µM)
In short: as §1

Row | Cell Line | relative viability (Bicalutamide + Olaparib; first compound 0.08 µM) | relative viability (Bicalutamide + Olaparib; first compound 0.253 µM) | relative viability (Bicalutamide + Olaparib; first compound 0.8 µM) | relative viability (Bicalutamide + Olaparib; first compound 2.53 µM) | relative viability ([1]; first compound 1 µM) | relative viability ([1]; first compound 3.162 µM) | relative viability ([1]; first compound 10 µM) | relative viability ([1]; first compound 31.62 µM) | relative viability ([1]; first compound 100 µM) | relative viability ([2]; first compound 1 µM) | relative viability ([2]; first compound 3.162 µM) | relative viability ([2]; first compound 10 µM) | relative viability ([2]; first compound 31.62 µM) | relative viability ([2]; first compound 100 µM) | relative viability ([3]; first compound 0.08 µM) | relative viability ([3]; first compound 0.253 µM) | relative viability ([3]; first compound 0.8 µM) | relative viability ([3]; first compound 2.53 µM)
1 | 201T | 0.881 | 0.885 | 0.846 | 0.877 | 0.709 | 0.719 | 0.709 | 0.725 | 0.755 | 1.04 | 1.04 | 1.08 | 1.05 | 1.12 | 0.685 | 0.658 | 0.742 | 0.674
2 | A549 | 0.355 | 0.353 | 0.42 | 0.302 | – | – | – | – | – | – | – | – | – | – | 0.546 | 0.483 | 0.617 | 0.357
3 | A-427 | 0.704 | 0.692 | 0.842 | 0.707 | 0.73 | 0.766 | 0.838 | 0.767 | 0.771 | 0.763 | 1.04 | 0.918 | 0.971 | 0.817 | 0.676 | 0.812 | 0.867 | 0.628
4 | ABC-1 | 0.815 | 0.975 | 1.21 | 1.01 | – | – | – | – | – | 0.519 | 0.823 | 0.575 | 0.499 | 0.234 | 0.812 | 0.731 | 1.06 | 0.758
5 | BEN | 1.1 | 1.15 | 1.26 | 1.06 | 1.03 | 0.983 | 1.18 | 0.97 | 1.2 | 0.587 | 0.342 | 0.66 | 0.303 | 0.295 | 0.589 | 0.472 | 0.713 | 0.632
6 | CAL-12T | 0.753 | 0.711 | 0.769 | 0.63 | 0.302 | 0.285 | 0.393 | 0.347 | 0.307 | 0.375 | 0.421 | 0.606 | 0.285 | 0.357 | 0.394 | 0.415 | 0.454 | 0.345
7 | COR-L23 | 0.319 | 0.309 | 0.294 | 0.293 | 0.585 | 0.652 | 0.651 | 0.582 | 0.544 | 0.611 | 0.602 | 0.815 | 0.694 | 0.119 | 0.896 | 0.724 | 0.945 | 0.765
8 | COR-L 105 | 0.847 | 0.777 | 0.632 | 0.662 | 0.432 | 0.449 | 0.417 | 0.422 | 0.329 | 0.775 | 0.827 | 0.925 | 0.692 | 0.552 | 0.372 | 0.324 | 0.394 | 0.303
9 | Calu-6 | 0.667 | 0.52 | 0.586 | 0.604 | – | – | – | – | – | – | – | – | – | – | 1.06 | 0.87 | 1.04 | 0.839
10 | ChaGo-K-1 | 0.4 | 0.423 | 0.466 | 0.446 | 0.887 | 0.911 | 0.963 | 0.855 | 0.903 | 0.565 | 0.697 | 0.646 | 0.705 | 0.417 | 0.818 | 0.606 | 0.892 | 0.523
11 | EBC-1 | 0.707 | 0.638 | 0.746 | 0.654 | – | – | – | – | – | – | – | – | – | – | 0.41 | 0.362 | 0.378 | 0.23
12 | EKVX | 0.917 | 0.861 | 1 | 0.79 | 0.368 | 0.381 | 0.334 | 0.448 | 0.378 | 0.824 | 0.883 | 1.22 | 0.811 | 1.02 | 0.456 | 0.366 | 0.434 | 0.455
13 | EMC-BAC-2 | 0.528 | 0.462 | 0.494 | 0.397 | 0.753 | 1.01 | 0.985 | – | 0.959 | 0.993 | 1.24 | 1.29 | 1.22 | 1.22 | 0.517 | 0.531 | 0.527 | 0.456
14 | EPLC-272H | 0.791 | 0.699 | 0.695 | 0.682 | 0.266 | 0.278 | 0.341 | 0.302 | 0.289 | 0.28 | 0.183 | 0.249 | 0.2 | 0.211 | 0.311 | 0.266 | 0.329 | 0.33
15 | H3255 | 0.564 | 0.558 | 0.554 | 0.551 | 0.55 | 0.547 | 0.647 | 0.574 | 0.718 | 0.859 | 1 | 1.05 | 0.896 | 1.04 | 0.521 | 0.376 | 0.48 | 0.462
16 | HARA | 0.871 | – | 1.22 | 0.878 | 0.709 | 0.814 | – | 0.633 | 1 | 0.707 | 0.939 | 0.486 | 0.75 | 0.802 | 0.462 | 0.413 | 0.566 | 0.316
17 | HCC-15 | 0.77 | 0.685 | 0.769 | 0.657 | 0.349 | 0.385 | 0.386 | 0.369 | 0.393 | 0.363 | 0.416 | 0.509 | 0.328 | 0.25 | 0.714 | 0.699 | 0.951 | 0.77
18 | HCC-44 | 1.01 | 1.02 | 1.02 | 1.01 | 1.08 | 1.02 | 1.04 | 1.11 | 1 | 1.09 | 1.12 | 1.54 | 0.968 | 0.948 | 0.702 | 0.534 | 0.727 | 0.479
19 | HCC-78 | 0.709 | 0.651 | 0.889 | 0.766 | 0.746 | 0.681 | 0.955 | 0.71 | 0.72 | – | – | – | – | – | 0.202 | 0.179 | 0.208 | 0.169
20 | HCC-366 | 0.361 | 0.323 | 0.444 | 0.286 | 0.361 | 0.322 | 0.41 | 0.359 | 0.322 | – | – | – | – | – | 0.124 | 0.101 | 0.147 | 0.0426
